Consider 14 compounds from BindingDB's records for doi:10.1016/j.bioorg.2017.04.012 (Cairo University, 2017).

By IC50 is commonly meant the concentration that gives 50% inhibition.

Assay [1] deals with T1, Prostaglandin G/H synthase 1 (Ovis aries, UniProt P05979).
T1 sequence (P05979 whole entry): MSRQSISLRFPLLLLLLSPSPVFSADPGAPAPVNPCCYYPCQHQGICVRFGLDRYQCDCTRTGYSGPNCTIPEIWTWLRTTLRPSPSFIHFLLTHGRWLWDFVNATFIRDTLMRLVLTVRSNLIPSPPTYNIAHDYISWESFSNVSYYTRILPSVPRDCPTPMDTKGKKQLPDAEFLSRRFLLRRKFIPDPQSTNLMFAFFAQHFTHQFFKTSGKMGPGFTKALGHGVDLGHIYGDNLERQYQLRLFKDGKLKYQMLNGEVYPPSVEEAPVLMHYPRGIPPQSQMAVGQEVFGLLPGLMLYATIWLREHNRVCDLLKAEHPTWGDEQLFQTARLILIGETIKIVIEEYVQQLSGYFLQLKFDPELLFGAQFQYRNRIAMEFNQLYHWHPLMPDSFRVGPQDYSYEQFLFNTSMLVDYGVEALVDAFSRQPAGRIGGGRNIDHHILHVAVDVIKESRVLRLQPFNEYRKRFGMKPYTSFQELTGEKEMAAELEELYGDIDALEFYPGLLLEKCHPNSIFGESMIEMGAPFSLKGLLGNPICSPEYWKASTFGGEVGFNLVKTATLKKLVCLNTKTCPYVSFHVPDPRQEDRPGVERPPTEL
The experiment in a line: COX Inhibitor Screening Assay. Conditions: pH 8; 25 °C. The procedure: (§1) Dilute 3 mL of assay buffer concentrate with 27 mL of HPLC - grade water. This final assay buffer (0.1 M Tris-HCl, pH 8) should be used for dilution of heme and COX enzymes prior to assaying. This vial contains a solution of heme in dimethylsulphoxide. Dilute 88 μL of heme with 1.912 mL of diluted assay buffer prior to use. A vial contains a solution of ovine COX-1 and should be kept on ice when thawed. Dilute 200 μL of enzyme with 400 μL of diluted assay buffer and store on ice. A vial contains a solution of ovine COX-2 and should be kept on ice when thawed. Dilute 200 μL of enzyme with 400 μL of diluted assay buffer and store on ice. A vial contains a solution or arachidonic acid in ethanol. […] Use the prepared arachidonic acid solution within 30 min. A 20 μL aliquot will yield a final concentration of 100 μM in the wells. A vial contains 0.1 M potassium hydroxide (KOH). A vial contains a solution of TMPD. Background wells: add 160 μL of assay buffer, and 10 μL of heme to three wells. 100% Initial Activity wells: add 150 μL assay buffer, 10 μL of heme, and 10 μL of enzyme (either COX-1 or COX-2) to three wells. Inhibitor wells: add 150 μL of assay buffer, 10 μL of heme, and10 μL of enzyme (either COX-1 or COX-2) to three wells. Add 10 μL of inhibitor to the inhibitor wells and 10 μL of solvent (methanol, dimethylsulphoxide or ethanol) to the 100% Initial Activity wells and background wells, this process was repeated three times. Carefully shake the plate for a few seconds and incubate for five minutes at 25 °C. Add 20 μL of the colorimetric substratesolution to all the wells that you are using. Add 20 μL of arachidonic acid to all the wells you are using. Carefully shake the plate for few seconds and incubate for five minutes at 25 °C. Read the absorbance at 590 nm using a plate reader.

The target in assay [2] is T2, Prostaglandin G/H synthase 2 (Ovis aries, UniProt P79208).
T2 sequence (P79208 whole entry): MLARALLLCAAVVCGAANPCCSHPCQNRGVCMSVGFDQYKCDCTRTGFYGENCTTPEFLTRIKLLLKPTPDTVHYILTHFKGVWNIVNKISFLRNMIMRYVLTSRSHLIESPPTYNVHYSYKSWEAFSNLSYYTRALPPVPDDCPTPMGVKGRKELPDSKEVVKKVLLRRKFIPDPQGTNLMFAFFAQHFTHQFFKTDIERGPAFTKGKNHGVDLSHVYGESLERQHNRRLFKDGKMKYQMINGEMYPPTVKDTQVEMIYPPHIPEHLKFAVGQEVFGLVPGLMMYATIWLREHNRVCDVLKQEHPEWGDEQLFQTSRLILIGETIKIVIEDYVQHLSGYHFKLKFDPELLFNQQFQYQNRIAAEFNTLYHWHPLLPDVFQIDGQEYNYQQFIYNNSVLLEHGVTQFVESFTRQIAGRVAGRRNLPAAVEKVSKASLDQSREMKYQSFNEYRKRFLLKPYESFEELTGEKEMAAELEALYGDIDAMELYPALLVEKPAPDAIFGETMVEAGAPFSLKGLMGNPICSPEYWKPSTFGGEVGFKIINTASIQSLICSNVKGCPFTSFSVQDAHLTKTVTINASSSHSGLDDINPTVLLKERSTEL
The experiment in a line: COX Inhibitor Screening Assay. Particulars: pH 8; 25 °C. The procedure: as §1

With `CN(C)c1ccc(/C=C2/N=C(c3cccnc3)OC2=O)cc1` [4-(4-(Dimethylamino)benzylidene)-2-(pyridin-3-yl)oxazol-5(4H)-one (IIIe)], the IC50 stood at 0.08 µM in assay [1] and 0.019 µM in assay [2].
The like results for `O=C1OC(c2cccnc2)=N/C1=C\c1ccccc1` [4-Benzylidene-2-(pyridin-3-yl) oxazol-5(4H)-one (IIIa)] were, in that order, 0.44 µM and 0.077 µM.
Turning to `O=C1NN(c2ccccc2)C(c2cccnc2)=N/C1=C/c1ccc(Cl)cc1` [5-(4-Chlorobenzylidene)-2-phenyl-3-(pyridin-3-yl)-1,2-dihydro-1,2,4-triazin-6(5H)-one (IVb)], the values for the concentration for half-maximal inhibition (IC50) in assay [1] and in assay [2] were 0.16 µM and 0.034 µM, respectively.
As for `COc1ccc(/C=C2/N=C(c3cccnc3)OC2=O)cc1` [4-(4-Methoxybenzylidene)-2-(pyridin-3-yl)oxazol-5(4H)-one (IIId)], the results for the IC50 in assay [1] and in assay [2] were 0.21 µM and 0.059 µM, respectively.
`O=C1OC(c2cccnc2)=N/C1=C/c1ccc(O)cc1` [4-(4-Hydroxybenzylidene)-2-(pyridin-3-yl)oxazol-5(4H)-one (IIIc)]: the IC50 was determined as 0.27 µM in assay [1] and 0.024 µM in assay [2].
Regarding `O=C1OC(c2cccnc2)=N/C1=C\c1ccccc1O` [4-(2-Hydroxybenzylidene)-2-(pyridin-3-yl)oxazol-5(4H)-one (IIIf)], the half-maximal inhibitory concentration (IC50) in assay [1] turned out to be 0.44 µM; in assay [2], 0.085 µM.
The compound `COc1ccc(/C=C2/N=C(c3cccnc3)N(c3ccccc3)NC2=O)cc1` [5-(4-Methoxybenzylidene)-2-phenyl-3-(pyridin-3-yl)-1,2-dihydro-1,2,4-triazin-6(5H)-one (IVd)] yielded a 50% inhibitory concentration (IC50) in assay [1] of 0.108 µM.
Regarding `O=C1NN(c2ccccc2)C(c2cccnc2)=N/C1=C/c1ccccc1` [5-Benzylidene-2-phenyl-3-(pyridin-3-yl)-1,2-dihydro-1,2,4-triazin-6(5H)-one (IVa)], the IC50 in assay [1] was 0.15 µM; in assay [2] it was 0.035 µM.
Turning to `O=C1OC(c2cccnc2)=N/C1=C/c1ccc(Cl)cc1` [4-(4-Chlorobenzylidene)-2-(pyridin-3-yl)oxazol-5(4H)-one (IIIb)], the IC50 in assay [1] was found to be 0.45 µM; in assay [2], 0.106 µM.
Consider `O=C1NN(c2ccccc2)C(c2cccnc2)=N/C1=C/c1cccnc1` [2-Phenyl-3-(pyridin-3-yl)-5-(pyridin-3-ylmethylene)-1,2-dihydro-1,2,4-triazin-6(5H)-one (IVg)], for which the values for the half-maximal inhibitory concentration (IC50) in assay [1] and in assay [2] were 0.084 µM and 0.014 µM, respectively.
For `O=C1OC(c2cccnc2)=N/C1=C\c1cccnc1` [2-(pyridin-3-yl)-4-(pyridin-3-ylmethylene)oxazol-5(4H)-one (IIIg)], the figures for the half-inhibitory concentration (IC50) in assay [1] and in assay [2] were 0.34 µM and 0.075 µM, respectively.
Regarding `O=C1NN(c2ccccc2)C(c2cccnc2)=N/C1=C/c1ccccc1O` [5-(2-Hydroxybenzylidene)-2-phenyl-3-(pyridin-3-yl)-1,2-dihydro-1,2,4-triazin-6(5H)-one (IVf)], the IC50 in assay [1] was 0.085 µM; in assay [2] it was 0.017 µM.
In the case of `O=C1NN(c2ccccc2)C(c2cccnc2)=N/C1=C/c1ccc(O)cc1` [5-(4-Hydroxybenzylidene)-2-phenyl-3-(pyridin-3-yl)-1,2-dihydro-1,2,4-triazin-6(5H)-one (IVc)], the half-inhibitory concentration (IC50) in assay [1] is 0.096 µM; in assay [2], 0.019 µM.
In the same order, the values of `CN(C)c1ccc(/C=C2/N=C(c3cccnc3)N(c3ccccc3)NC2=O)cc1` [5-(4-(Dimethylamino)benzylidene)-2-phenyl-3-(pyridin-3-yl)-1,2-dihydro-1,2,4-triazin-6(5H)-one (IVe)] are 0.116 µM and 0.019 µM.
